The target in assay [1] is SHP2^E76A protein (Homo sapiens (Human), UniProt Q06124, E76A). The experiment in a line: SHP2 enzyme activity inhibition experiment. It counts as biochemical. An outline of the steps: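 Compounds tested at 10 concentrations in 3-fold serial dilution. IC50 from a four-parameter Hill-slope nonlinear fit of enzyme activity versus concentration.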
Assay [2] deals with MOLM-13 cells. The experiment in a line: MOLM-13 cell proliferation experiment. It counts as cell-based. The settings on record: Homo sapiens. As for the experimental part: After 3 days, 5 µL of CellTiter-Glo reagent (Promega, ZG7572) was added to each well, and the plates were kept at room temperature in the dark for 10 minutes. The […] was detected by Spectra max i3 (Molecular Devices). The relative growth rate of the treated cells was compared with that of DMSO control.

The subject of assay [3] is phosphorylation level of intracellular protein kinase (ERK) in MOLM13 cells. Nature of the assay: Phosphorylated protein kinase (p-ERK) cell experiment (AlphaLISA). It counts as cell-based. The settings on record: Homo sapiens, MOLM-13, MOLM13 cells. The procedure:
The inhibitory activities of the compounds on the phosphorylation level of intracellular protein kinase (ERK) were determined by AlphaLISA method.
Firstly, the cells were treated with the compounds. The compounds to be tested were subjected to 3-fold dilution with 100% DMSO, and a total of 9 different concentration gradients were set. MOLM13 cells were then seeded into 96-well plates at a density of 30,000 cells per well in a volume of 100 µL per well. […] of DMSO or the test compounds with different concentrations was then transferred into each well, setting two duplicates for each concentration, and the final concentration of DMSO was controlled at 0.5%.
Secondly, the cells were lysed. After 2 hours of cell treatment, the medium was removed, and the cells were washed 3 times with phosphate buffered saline. 50 µL of freshly prepared lysis buffer was added to each well, and the plates were shaken and kept at room temperature for 10 minutes.
Thirdly, the phosphorylated extracellular signal-regulated kinase (p-ERK) was detected by AlphaLISA@ SureFire® Ultra™ p-ERK 1/2 (Thr202/Tyr204) kit (Perkin Elmer, ALSU-PERK-A10K). 10 µL of the above lysate was transferred to a 384-well plate (Perkin Elmer, 6005350), and the phosphorylation level of the extracellular signal-regulated kinase of the sample was detected according to the product instructions. The signal was read using AlphaScreen detector on Spectra max i3 (Molecular Devices). The percentage of inhibition (%) was calculated by the following formula: Inhibition percentage(%)=(1−p-ERK signal of compound-treated cells/p-ERK signal of DMSO-treated cells)*100

Where [4] appears, read: SHP2 enzyme activity, Tables 1.1 and 1.2, read-out: IC50.
The mark [5] stands for this setting: MOLM-13, 72 h, MOLM-13 cell proliferation, 3 days, Tables 3.1 and 3.2, read-out: IC50.
Where [6] appears, read: p-ERK, 2 hours of cell treatment, Tables 2.1 and 2.2, read-out: IC50.
Where [7] appears, read: Table 4, read-out: SHP2 enzyme activity IC50.
The mark [8] stands for this setting: MOLM-13, read-out: MOLM-13 cell proliferation IC50.

Read-outs that look alike come from different tables or passages of the source. A value given as a limit tells only on which side of the number the result lay.

SHP2^E76A protein, sequence (Q06124 whole entry E76A): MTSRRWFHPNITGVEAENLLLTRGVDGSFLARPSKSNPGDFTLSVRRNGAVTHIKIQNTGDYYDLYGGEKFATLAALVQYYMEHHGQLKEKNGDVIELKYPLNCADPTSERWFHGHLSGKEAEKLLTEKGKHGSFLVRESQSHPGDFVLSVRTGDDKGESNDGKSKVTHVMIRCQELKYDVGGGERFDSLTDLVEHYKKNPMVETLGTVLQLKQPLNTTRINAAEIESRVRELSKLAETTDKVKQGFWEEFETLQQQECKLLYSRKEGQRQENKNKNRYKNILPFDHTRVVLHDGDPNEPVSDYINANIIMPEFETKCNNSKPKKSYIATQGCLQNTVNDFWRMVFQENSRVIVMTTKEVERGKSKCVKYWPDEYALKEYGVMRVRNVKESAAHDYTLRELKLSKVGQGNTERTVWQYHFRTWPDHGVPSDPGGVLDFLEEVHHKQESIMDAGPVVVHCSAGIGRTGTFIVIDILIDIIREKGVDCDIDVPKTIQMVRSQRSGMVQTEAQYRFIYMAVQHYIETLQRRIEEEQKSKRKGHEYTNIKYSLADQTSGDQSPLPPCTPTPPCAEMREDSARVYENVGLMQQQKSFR

Take `N[C@@H]1CCCCC12CCN(c1ncc(Sc3cccc(Cl)c3Cl)c3nncn13)CC2` [(R)-3-(8-((2,3-dichlorophenyl)thio)-[1,2,4]triazolo[4,3-c]pyrimidin-5-yl)-3-azaspiro[5.5]undecan-7-amine]: the values for the IC50 in assay [1] (setting [4]), in assay [2] (setting [5]) and in assay [3] (setting [6]) were 100 to 1000 nM, 1000 to 10000 nM and 1000 to 10000 nM, respectively.

Consider `N[C@@H]1CCC12CCN(c1ncc(Sc3cccc(Cl)c3Cl)c3nccn13)CC2` [(R)-7-(8-((2,3-dichlorophenyl)thio)imidazo[1,2-c]pyrimidin-5-yl)-7-azaspiro[3.5]nonan-1-amine], for which the IC50 in assay [1] (setting [4]), in assay [2] (setting [5]) and in assay [3] (setting [6]) was 100 to 1000 nM each time.

With `Cn1ccc2c(Sc3cnc(N4CCC5(CCC[C@H]5N)CC4)n4ccnc34)ccnc21` [(R)-8-(8-((1-methyl-1H-pyrrolo[2,3-b]pyridin-4-yl)thio)imidazo[1,2-c]pyrimidin-5-yl)-8-azaspiro[4.5]decan-1-amine], the IC50 in assay [1] (setting [4]) is below 100 nM; in assay [2] (setting [5]) it was 100 to 1000 nM; in assay [3] (setting [6]), 100 to 1000 nM.

With `N[C@@H]1CC(F)(F)CC12CCN(c1ncc(Sc3cccc(Cl)c3Cl)c3nccn13)CC2` [(R)-8-(8-((2,3-dichlorophenyl)thio)imidazo[1,2-c]pyrimidin-5-yl)-3,3-difluoro-8-azaspiro[4.5]decan-1-amine], the IC50 in assay [1] (setting [4]) was below 100 nM; in assay [2] (setting [5]) it was 100 to 1000 nM; in assay [3] (setting [6]), 100 to 1000 nM.

As for `N[C@@H]1CCCC12CCN(c1ncc(Sc3cccc(Cl)c3Cl)c3nccn13)CC2` [(R)-8-(8-((2,3-dichlorophenyl)thio)imidazo[1,2-c]pyrimidin-5-yl)-8-azaspiro[4.5]decan-1-amine], the IC50 in assay [1] (setting [4]) was below 100 nM; in assay [2] (setting [5]), 100 to 1000 nM; in assay [3] (setting [6]), 100 to 1000 nM.

In the case of `N[C@@H]1CCCC12CCN(c1ncc(Sc3ccnc(Cl)c3Cl)c3nncn13)CC2` [(R)-8-(8-((2,3-dichloropyridin-4-yl)thio)-[1,2,4]triazolo[4,3-c]pyrimidin-5-yl)-8-azaspiro[4.5]decan-1-amine], the IC50 in assay [1] (setting [4]) was below 100 nM; in assay [2] (setting [5]) it was 100 to 1000 nM; in assay [3] (setting [6]) it was 1000 to 10000 nM.

On to `N[C@@H]1CCCC12CCN(c1ncc(Sc3ccnc(Cl)c3Cl)c3nccn13)CC2` [(R)-8-(8-((2,3-dichloropyridin-4-yl)thio)imidazo[1,2-c]pyrimidin-5-yl)-8-azaspiro[4.5]decan-1-amine], for which the IC50 in assay [1] (setting [4]) is below 100 nM; in assay [1] (setting [7]), 57 nM; in assay [2] (setting [5]), below 100 nM; in assay [2] (setting [8]), 42 nM; in assay [3] (Table 4, read-out: p-ERK IC50) it was 159 nM; in assay [3] (setting [6]), 100 to 1000 nM.

For the compound `N[C@@H]1CCCC12CCN(c1ncc(Sc3cccnc3C(F)(F)F)c3nncn13)CC2` [(R)-8-(8-((2-(trifluoromethyl)pyridin-3-yl)thio)-[1,2,4]triazolo[4,3-c]pyrimidin-5-yl)-8-azaspiro[4.5]decan-1-amine], the figures for the IC50 in assay [1] (setting [4]), in assay [2] (setting [5]) and in assay [3] (setting [6]) were 100 to 1000 nM, 100 to 1000 nM and 1000 to 10000 nM, respectively.

With `N[C@@H]1CCCC12CCN(c1ncc(Sc3cccnc3C(F)(F)F)c3nccn13)CC2` [(R)-8-(8-((2-(trifluoromethyl)pyridin-3-yl)thio)imidazo[1,2-c]pyrimidin-5-yl)-8-azaspiro[4.5]decan-1-amine], the values for the IC50 in assay [1] (setting [4]), in assay [2] (setting [5]) and in assay [3] (setting [6]) were below 100 nM, 100 to 1000 nM and 100 to 1000 nM, respectively.

As for `Nc1nccc(Sc2cnc(N3CCC4(CCC[C@H]4N)CC3)n3ncnc23)c1Cl` [(R)-8-(8-((2-amino-3-chloropyridin-4-yl)thio)-[1,2,4]triazolo[1,5-c]pyrimidin-5-yl)-8-azaspiro[4.5]decan-1-amine], the IC50 lay within 100 to 1000 nM in assay [1] (setting [4]), 100 to 1000 nM in assay [2] (setting [5]) and 1000 to 10000 nM in assay [3] (setting [6]).

Turning to `Nc1nccc(Sc2cnc(N3CCC4(CCC[C@H]4N)CC3)n3ccnc23)c1Cl` [(R)-8-(8-((2-amino-3-chloropyridin-4-yl)thio)imidazo[1,2-c]pyrimidin-5-yl)-8-azaspiro[4.5]decan-1-amine], the IC50 is below 100 nM in assay [1] (setting [4]); 20 nM in assay [1] (setting [7]); 100 to 1000 nM in assay [2] (setting [5]); 270 nM in assay [2] (setting [8]); 410 nM in assay [3] (Table 4, read-out: p-ERK IC50); 100 to 1000 nM in assay [3] (setting [6]).

Turning to `Nc1cc(Sc2cnc(N3CCC4(CCC[C@H]4N)CC3)n3ccnc23)c(Cl)cn1` [(R)-8-(8-((2-amino-5-chloropyridin-4-yl)thio)imidazo[1,2-c]pyrimidin-5-yl)-8-azaspiro[4.5]decan-1-amine], the IC50 is below 100 nM in assay [1] (setting [4]); 25 nM in assay [1] (setting [7]); below 100 nM in assay [2] (setting [5]); 43 nM in assay [2] (setting [8]); 32 nM in assay [3] (Table 4, read-out: p-ERK IC50); below 100 nM in assay [3] (setting [6]).

As for `N[C@@H]1CCCC12CCN(c1ncc(Sc3ccccc3Cl)c3nncn13)CC2` [(R)-8-(8-((2-chlorophenyl)thio)-[1,2,4]triazolo[4,3-c]pyrimidin-5-yl)-8-azaspiro[4.5]decan-1-amine], the IC50 is 100 to 1000 nM in assay [1] (setting [4]); 140 nM in assay [1] (setting [7]); 100 to 1000 nM in assay [2] (setting [5]); 485 nM in assay [2] (setting [8]); 548 nM in assay [3] (Table 4, read-out: p-ERK IC50); 100 to 1000 nM in assay [3] (setting [6]).

Consider `COc1ccccc1Sc1cnc(N2CCC3(CCC[C@H]3N)CC2)n2ccnc12` [(R)-8-(8-((2-methoxyphenyl)thio)imidazo[1,2-c]pyrimidin-5-yl)-8-azaspiro[4.5]decan-1-amine], for which the IC50 in assay [1] (setting [4]) is below 100 nM; in assay [1] (setting [7]), 83 nM; in assay [2] (setting [5]), 100 to 1000 nM; in assay [2] (setting [8]) it was 210 nM; in assay [3] (Table 4, read-out: p-ERK IC50), 469 nM; in assay [3] (setting [6]) it was 100 to 1000 nM.

As for `N[C@@H]1CCCC12CCN(c1ncc(Sc3ccncc3C(F)(F)F)c3nccn13)CC2` [(R)-8-(8-((3-(trifluoromethyl)pyridin-4-yl)thio)imidazo[1,2-c]pyrimidin-5-yl)-8-azaspiro[4.5]decan-1-amine], the IC50 in assay [1] (setting [4]) is below 100 nM; in assay [2] (setting [5]), 100 to 1000 nM; in assay [3] (setting [6]), 100 to 1000 nM.

With `Nc1cccc(Sc2cnc(N3CCC4(CCC[C@H]4N)CC3)n3cnnc23)c1Cl` [(R)-8-(8-((3-amino-2-chlorophenyl)thio)-[1,2,4]triazolo[4,3-c]pyrimidin-5-yl)-8-azaspiro[4.5]decan-1-amine], the IC50 is below 100 nM in assay [1] (setting [4]); 25 nM in assay [1] (setting [7]); 100 to 1000 nM in assay [2] (setting [5]); 389 nM in assay [2] (setting [8]); 245 nM in assay [3] (Table 4, read-out: p-ERK IC50); 100 to 1000 nM in assay [3] (setting [6]).

For the compound `CN(C)c1nccc(Sc2cnc(N3CCC4(CCC[C@H]4N)CC3)n3ccnc23)c1Cl` [(R)-8-(8-((3-chloro-2-(dimethylamino)pyridin-4-yl)thio)imidazo[1,2-c]pyrimidin-5-yl)-8-azaspiro[4.5]decan-1-amine], the values for the IC50 in assay [1] (setting [4]), in assay [2] (setting [5]) and in assay [3] (setting [6]) were below 100 nM, 100 to 1000 nM and 100 to 1000 nM, respectively.

Take `N[C@@H]1CCCC12CCN(c1ncc(Sc3ccnc(F)c3Cl)c3nccn13)CC2` [(R)-8-(8-((3-chloro-2-fluoropyridin-4-yl)thio)imidazo[1,2-c]pyrimidin-5-yl)-8-azaspiro[4.5]decan-1-amine]: the figures for the IC50 in assay [1] (setting [4]), in assay [2] (setting [5]) and in assay [3] (setting [6]) were below 100 nM, 100 to 1000 nM and 100 to 1000 nM, respectively.

As to `COc1nccc(Sc2cnc(N3CCC4(CCC[C@H]4N)CC3)n3ccnc23)c1Cl` [(R)-8-(8-((3-chloro-2-methoxypyridin-4-yl)thio)imidazo[1,2-c]pyrimidin-5-yl)-8-azaspiro[4.5]decan-1-amine], the results for the IC50 in assay [1] (setting [4]), in assay [2] (setting [5]) and in assay [3] (setting [6]) were below 100 nM, 100 to 1000 nM and 100 to 1000 nM, respectively.

For the compound `Cc1nccc(Sc2cnc(N3CCC4(CCC[C@H]4N)CC3)n3ccnc23)c1Cl` [(R)-8-(8-((3-chloro-2-methyl-pyridin-4-yl)thio)imidazo[1,2-c]pyrimidin-5-yl)-8-azaspiro[4.5]decan-1-amine], the IC50 in assay [1] (setting [4]) was below 100 nM; in assay [1] (setting [7]), 40 nM; in assay [2] (setting [5]), below 100 nM; in assay [2] (setting [8]), 58 nM; in assay [3] (Table 4, read-out: p-ERK IC50) it was 180 nM; in assay [3] (setting [6]), 100 to 1000 nM.

Regarding `Cc1nccc(Sc2cnc(N3CCC4(CCC[C@H]4N)CC3)n3cnnc23)c1Cl` [(R)-8-(8-((3-chloro-2-methylpyridin-4-yl)thio)-[1,2,4]triazolo[4,3-c]pyrimidin-5-yl)-8-azaspiro[4.5]decan-1-amine], the IC50 in assay [1] (setting [4]) is below 100 nM; in assay [1] (setting [7]), 27 nM; in assay [2] (setting [5]) it was 100 to 1000 nM; in assay [2] (setting [8]), 232 nM; in assay [3] (Table 4, read-out: p-ERK IC50) it was 177 nM; in assay [3] (setting [6]), 100 to 1000 nM.
